Data as given in paper PMC4491109, “Synthesis and anticonvulsant activity of new N-phenyl-2-(4-phenylpiperazin-1-yl)acetamide derivatives” (Medicinal Chemistry Research, 2015).
Where two headings read alike, the source gives them in different places.

Columns and labels:
[1] = test system: maximal electroshock (MES) seizures; assay: MES test after oral administration in rats (screen and quantification); assay type: in vivo; conditions: for PI (TD50/ED50), MES: protective index for MES; for ED50: Rattus norvegicus, po, at TPE, 95 % confidence limits in parentheses
Experimental: This screen discloses the time of onset, the approximate time of peak effect (TPE) and the duration of anticonvulsant activity or neurotoxicity.
The quantitative evaluation of the MES median effective dose (ED50) and toxic dose (TD50) was performed at previously estimated TPE—2 h.
(§1) Phase I of the in vivo studies involved three tests: MES, scPTZ and rotarod test for NT. Male albino mice (CF#1 strain, weighing 18–25 g) and male albino rats (Sprague–Dawley) were used as experimental animals. The animals were housed in metabolic cages and allowed free access to food and water. The compounds were injected intraperitoneally to mice as a suspension in 0.5 % methylcellulose/water mixture at a dose level 30, 100 or 300 mg/kg with anticonvulsant activity and neurotoxicity assessment at 0.5 and 4 h after administration. Promising derivatives from phase I underwent phase VIa in which they were administrated orally into rats at a fixed dose of 30 mg/kg for both MES and the rotarod toxicity determination at five pretreatment times: 0.25, 0.5, 1, 2, 4 h. Groups of eight mice or four rats are employed.
In the MES screen, an electrical stimulus of 0.2 s in duration (50 mA in mice and 150 mA in rats) is delivered via corneal electrodes primed with an electrolyte solution containing an anesthetic agent. The endpoint is the tonic extension of the hind limbs. […] Mice not displaying hind limb tonic extension are considered to be protected from seizures.

[2] = test system: rats (rotarod test); assay: Neurotoxicity, rotarod test after p.o. administration in rats; conditions: at TPE, 95 % confidence limits in parentheses
[3] = test system: pentylenetetrazole-induced seizures; assay: scPTZ test after p.o. administration in rats (quantification); assay type: in vivo; conditions: for ED50: Rattus norvegicus, po, at TPE, 95 % confidence limits in parentheses
Experimental: On the basis of the preliminary data in rats, compound 20 was chosen for quantification of the pharmacological parameters (ED50 and TD50) after p.o. application. The quantitative evaluation of the MES median effective dose (ED50) and toxic dose (TD50) was performed at previously estimated TPE—2 h.
(§2) The scPTZ test utilizes a dose of pentylenetetrazole (85 mg/kg in mice) that produces clonic seizures lasting for a period of at least 5 s in 97 % (CD97) of animals tested. PTZ is administered 0.5 and 4 h after injections of tested compounds, and observation is carried out for 30 min. In the control groups, the first episode of clonic convulsions is observed between 6 and 15 min of observation. The absence of clonic convulsions in the observed time period of […] is interpreted as the compound’s ability to protect against PTZ-induced seizures.

[4] = test system: pentylenetetrazole-induced seizures; assay: Subcutaneous pentylenetetrazole (scPTZ) test, i.p. administration in mice; assay type: in vivo; conditions: Mus musculus, ip, doses of 30, 100 or 300 mg/kg
Experimental: (§3) Considering the aforementioned facts, the profile of anticonvulsant activity of final compounds 3–24 was established in the MES and scPTZ tests, after intraperitoneal (i.p.) injection in mice at doses of 30, 100 and 300 mg/kg. An observation was carried out at two different time intervals—0.5 and 4 h. Furthermore, in addition to the primary anticonvulsant screening, the acute neurological toxicity (NT) was determined in mice by the rotarod test.
(§4) Compounds 3–24 were pharmacologically preevaluated within the Antiepileptic Drug Development (ADD) Program in Epilepsy Branch, Neurological Disorders Program, National Institute of the Neurological and Communicative Disorders and Stroke (NIH/NINDS), Rockville, MD, USA, by using procedures described elsewhere (Krall et al., [1978]; Kupferberg, [1989]).
as §1, §2

[5] = test system: maximal electroshock (MES) seizures; assay: Maximal electroshock (MES) test, i.p. administration in mice; assay type: in vivo; conditions: Mus musculus, ip, doses of 30, 100 or 300 mg/kg
Experimental: as §3, §4, §1
In the MES screen, an electrical stimulus of 0.2 s in duration (50 mA in mice and 150 mA in rats) is delivered via corneal electrodes primed with an electrolyte solution containing an anesthetic agent. The endpoint is the tonic extension of the hind limbs. In the control groups, the procedures cause immediate hind limb tonic extension. Mice not displaying hind limb tonic extension are considered to be protected from seizures.

[6] = test system: mice (rotarod test); assay: Neurotoxicity screening (NT), rotarod test, i.p. administration in mice; assay type: in vivo; conditions: for dose showing neurotoxicity in the rotarod test (NT): ip
Experimental: as §3, §1
The neurological toxicity test (NT) induced by a compound was detected in mice or rats using standardized rotarod test (Dunham and Miya, [1957]). Untreated control mice or rats, when placed on the rod, can maintained their equilibrium for a prolonged time period.

[7] = test system: 6-Hz psychomotor seizures; assay: Psychomotor seizure test (6-Hz), i.p. in mice; assay type: in vivo; conditions: 100 mg/kg; for 6-Hz, number of mice protected/number of mice tested, 0.25 h / 6-Hz, number of mice protected/number of mice tested, 0.5 h / 6-Hz, number of mice protected/number of mice tested, 1 h / 6-Hz, number of mice protected/number of mice tested, 2 h / 6-Hz, number of mice protected/number of mice tested, 4 h: current 32 mA
Excerpt: In the next step of pharmacological investigations, four compounds 12, 19, 20 and 24 were chosen for the evaluation of anticonvulsant activity in the psychomotor 6-Hz test (Table 4). The selection was made randomly as a part of the search of molecules providing anti-6-Hz protection among chemically diversified compounds pursued in the NIH/NINDS. It should be noticed that 6-Hz screen has been validated as a model of therapy-resistant epilepsy (Barton et al., [2001]).
The 6-Hz model is an alternative electroshock paradigm that uses low-frequency (6 Hz), long-duration (3 s) electrical stimulation. Corneal stimulation (0.2 ms duration monopolar rectangular pulses at 6-Hz for 3 s) was delivered by a constant-current device. During the stimulation, mice were manually restrained and released into the observation cage immediately after the current application. The seizures manifest in “stunned” posture associated with rearing, forelimb, automatic movements and clonus, twitching the vibrissae and Straub–tail. The duration of the seizure activity ranges from 60 to 120 s in untreated animals. At the end of the seizure, animals resume their normal exploratory behavior. The experimental end point is protection against the seizure. The animal is considered to be protected if it resumes its normal exploratory behavior within 10 s from the stimulation (Brown et al., [1953]).

[8] = in vivo; conditions: male, Sprague-Dawley, rat, po
[9] = test system: MES seizures; design: method as in Rogawski, 2006; conditions: even at high doses, ref Rogawski, 2006; cited from earlier work
[10] = test system: 6-Hz psychomotor seizures; design: method as in Rogawski, 2006; conditions: ref Rogawski, 2006; cited from earlier work
[11] = test system: PTZ seizures; design: method as in Rogawski, 2006; conditions: even at high doses, ref Rogawski, 2006; cited from earlier work
[12] = 0.5 h, read-out: scPTZ, minimum dose effective in half or more animals tested, 0.5 h
[13] = 4 h, read-out: scPTZ, minimum dose effective in half or more animals tested, 4 h
[14] = 0.5 h, read-out: MES, minimum dose effective in half or more animals tested, 0.5 h
[15] = 4 h, read-out: MES, minimum dose effective in half or more animals tested, 4 h

Structure (SMILES) | PI (TD50/ED50), MES ([1]; p.o.) | MES, number of rats protected/number of rats tested, 0.25 h ([1]; p.o., 30 mg/kg) | MES, number of rats protected/number of rats tested, 0.5 h ([1]; p.o., 30 mg/kg) | MES, number of rats protected/number of rats tested, 1 h ([1]; p.o., 30 mg/kg) | MES, number of rats protected/number of rats tested, 2 h ([1]; p.o., 30 mg/kg, 2 h) | MES, number of rats protected/number of rats tested, 4 h ([1]; p.o., 30 mg/kg) | minimal effective dose [4, 12] [mg/kg] | minimal effective dose [4, 13] [mg/kg] | minimal effective dose [5, 14] [mg/kg] | minimal effective dose [5, 15] [mg/kg] | NT (rotarod), minimum dose neurotoxic in half or more animals tested, 0.5 h ([6]; male, CF#1, mouse, in vivo) | dose showing neurotoxicity in the rotarod test (NT) ([6]; male, CF#1, mouse, in vivo) [mg/kg] | 6-Hz, number of mice protected/number of mice tested, 0.25 h [7] | 6-Hz, number of mice protected/number of mice tested, 0.5 h ([7]; 0.5 h) | 6-Hz, number of mice protected/number of mice tested, 1 h ([7]; 1 h) | 6-Hz, number of mice protected/number of mice tested, 2 h ([7]; 2 h) | 6-Hz, number of mice protected/number of mice tested, 4 h [7] | also measured
CCCC(CCC)C(=O)O [Valproic acid] | 1.6 |  |  |  |  |  |  |  |  |  |  |  |  |  |  |  |  | TD50 NT (rotarod) [2]: 784 (503–1176) mg/kg; ED50 [3]: 646 mg/kg; PI (TD50/ED50), scPTZ ([3]; protective index for scPTZ): 1.2
Cl.O=C(CN1CCOCC1)Nc1cccc(Cl)c1 [Compound 13, N-(3-chlorophenyl)-2-morpholino-acetamide monohydrochloride] |  | 0/4 | 1/4 | 0/4 | 0/4 | 0/4 | > 300 | > 300 | 100 | 300 | 300 mg/kg | 300 |  |  |  |  |  | 
O=C(CN1CCN(Cc2ccccc2)CC1)Nc1cccc(C(F)(F)F)c1 [Compound 22, 2-(4-Benzylpiperazin-1-yl)-N-[3-(trifluoromethyl)phenyl]acetamide] |  | 1/4 | 1/4 | 1/4 | 1/4 | 1/4 | > 300 | > 300 | 300 | > 300 | 300^33 mg/kg |  |  |  |  |  |  | response comment (adverse sign observed) ([6]; mice, i.p., 300 mg/kg): tremors
Cl.O=C(CN1CCN(c2ccc(F)cc2)CC1)Nc1cccc(C(F)(F)F)c1 [Compound 19, 2-[4-(4-Fluorophenyl)piperazin-1-yl]-N-[3-(trifluoromethyl)phenyl]acetamide monohydrochloride] |  |  |  |  |  |  | > 300 | > 300 | 300 | 100 | 300 mg/kg | 300 | 0/4 | 0/4 | 0/4 | 0/4 | 1/4 | 6-Hz, % of animals protected, 4 h [7]: 25%
Cl.O=C(CN1CCN(c2cccc(C(F)(F)F)c2)CC1)Nc1cccc(C(F)(F)F)c1 [Compound 20, N-[3-(Trifluoromethyl)phenyl]-2-[4-[3-(trifluoromethyl)phenyl]piperazin-1-yl]acetamide monohydrochloride] | >9.56 (MES) | 0/4 | 1/4 | 0/4 | 2/4 | 0/4 | > 300 | > 300 | > 300 | 100 |  |  | 1/4 | 0/4 | 0/4 | 1/4 | 1/4 | ED50 [1]: 52.3 mg/kg; MES, % of animals protected, 2 h ([1]; p.o., 30 mg/kg, 2 h): 50%; 6-Hz, % of animals protected, 0.25 h [7]: 25%; 6-Hz, % of animals protected, 2 h ([7]; 2 h): 25%; 6-Hz, % of animals protected, 4 h [7]: 25%; TD50 at 2 h [8]: > 500 mg/kg
O=C1NC(=O)C(c2ccccc2)(c2ccccc2)N1 [Phenytoin, reference compound] | >3.6 (MES) | 1/4 | 4/4 | 3/4 | 3/4 | 3/4 | > 300 | > 300 | 30 | 30 | 100 mg/kg |  |  |  |  |  |  | ED50 [1]: 28.1 mg/kg; TD50 at 2 h [8]: > 100 mg/kg; ED50 [3]: > 500 mg/kg; NT (rotarod), minimum dose neurotoxic in half or more animals tested, 4 h ([6]; male, CF#1, mouse, in vivo, 4 h): 100 mg/kg
CC[C@@H](C(N)=O)N1CCCC1=O [levetiracetam] |  |  |  |  |  |  |  |  |  |  |  |  |  |  |  |  |  | activity against classical MES seizures (in words) [9]: inactive; effectiveness in the 6-Hz psychomotor seizure model (in words) [10]: high effectiveness; activity against classical PTZ seizures (in words) [11]: inactive
Cl.O=C(CN1CCOCC1)Nc1cccc(C(F)(F)F)c1 [Compound 24, 2-Morpholino-N-[3-(trifluoromethyl)phenyl]acetamide monohydrochloride] |  |  |  |  |  |  | > 300 | > 300 | 100 | > 300 | 100 mg/kg | 100 | 4/4 | 2/4 | 3/4 | 0/4 | 0/4 | 6-Hz, % of animals protected, 0.25 h [7]: 100%; 6-Hz, % of animals protected, 0.5 h ([7]; 0.5 h): 50%; 6-Hz, % of animals protected, 1 h ([7]; 1 h): 75%
